Measurements as given in patent EP4385984A1, “PYRIDINE-N-OXIDES AS INHIBITORS OF NAV1.8” (Grünenthal GmbH, priority 2022, dated 2024).

These compounds were tested against T1, human NaV1.8 (Homo sapiens, UniProt Q9Y5Y9) (assay: Electrophysiology: automated whole-cell voltage-clamp (patch clamp) recordings of sodium currents, Qube384). Settings: HEK-NaV1.8 (NM 006514.1) with b3 recombinant cell line, multi hole plates, ambient room temperature, read-out: Potency category (human NaV1.8 IC50).
T1 construct: expressed in transfected cells; host or cells: HEK
T1 sequence (Q9Y5Y9 whole entry): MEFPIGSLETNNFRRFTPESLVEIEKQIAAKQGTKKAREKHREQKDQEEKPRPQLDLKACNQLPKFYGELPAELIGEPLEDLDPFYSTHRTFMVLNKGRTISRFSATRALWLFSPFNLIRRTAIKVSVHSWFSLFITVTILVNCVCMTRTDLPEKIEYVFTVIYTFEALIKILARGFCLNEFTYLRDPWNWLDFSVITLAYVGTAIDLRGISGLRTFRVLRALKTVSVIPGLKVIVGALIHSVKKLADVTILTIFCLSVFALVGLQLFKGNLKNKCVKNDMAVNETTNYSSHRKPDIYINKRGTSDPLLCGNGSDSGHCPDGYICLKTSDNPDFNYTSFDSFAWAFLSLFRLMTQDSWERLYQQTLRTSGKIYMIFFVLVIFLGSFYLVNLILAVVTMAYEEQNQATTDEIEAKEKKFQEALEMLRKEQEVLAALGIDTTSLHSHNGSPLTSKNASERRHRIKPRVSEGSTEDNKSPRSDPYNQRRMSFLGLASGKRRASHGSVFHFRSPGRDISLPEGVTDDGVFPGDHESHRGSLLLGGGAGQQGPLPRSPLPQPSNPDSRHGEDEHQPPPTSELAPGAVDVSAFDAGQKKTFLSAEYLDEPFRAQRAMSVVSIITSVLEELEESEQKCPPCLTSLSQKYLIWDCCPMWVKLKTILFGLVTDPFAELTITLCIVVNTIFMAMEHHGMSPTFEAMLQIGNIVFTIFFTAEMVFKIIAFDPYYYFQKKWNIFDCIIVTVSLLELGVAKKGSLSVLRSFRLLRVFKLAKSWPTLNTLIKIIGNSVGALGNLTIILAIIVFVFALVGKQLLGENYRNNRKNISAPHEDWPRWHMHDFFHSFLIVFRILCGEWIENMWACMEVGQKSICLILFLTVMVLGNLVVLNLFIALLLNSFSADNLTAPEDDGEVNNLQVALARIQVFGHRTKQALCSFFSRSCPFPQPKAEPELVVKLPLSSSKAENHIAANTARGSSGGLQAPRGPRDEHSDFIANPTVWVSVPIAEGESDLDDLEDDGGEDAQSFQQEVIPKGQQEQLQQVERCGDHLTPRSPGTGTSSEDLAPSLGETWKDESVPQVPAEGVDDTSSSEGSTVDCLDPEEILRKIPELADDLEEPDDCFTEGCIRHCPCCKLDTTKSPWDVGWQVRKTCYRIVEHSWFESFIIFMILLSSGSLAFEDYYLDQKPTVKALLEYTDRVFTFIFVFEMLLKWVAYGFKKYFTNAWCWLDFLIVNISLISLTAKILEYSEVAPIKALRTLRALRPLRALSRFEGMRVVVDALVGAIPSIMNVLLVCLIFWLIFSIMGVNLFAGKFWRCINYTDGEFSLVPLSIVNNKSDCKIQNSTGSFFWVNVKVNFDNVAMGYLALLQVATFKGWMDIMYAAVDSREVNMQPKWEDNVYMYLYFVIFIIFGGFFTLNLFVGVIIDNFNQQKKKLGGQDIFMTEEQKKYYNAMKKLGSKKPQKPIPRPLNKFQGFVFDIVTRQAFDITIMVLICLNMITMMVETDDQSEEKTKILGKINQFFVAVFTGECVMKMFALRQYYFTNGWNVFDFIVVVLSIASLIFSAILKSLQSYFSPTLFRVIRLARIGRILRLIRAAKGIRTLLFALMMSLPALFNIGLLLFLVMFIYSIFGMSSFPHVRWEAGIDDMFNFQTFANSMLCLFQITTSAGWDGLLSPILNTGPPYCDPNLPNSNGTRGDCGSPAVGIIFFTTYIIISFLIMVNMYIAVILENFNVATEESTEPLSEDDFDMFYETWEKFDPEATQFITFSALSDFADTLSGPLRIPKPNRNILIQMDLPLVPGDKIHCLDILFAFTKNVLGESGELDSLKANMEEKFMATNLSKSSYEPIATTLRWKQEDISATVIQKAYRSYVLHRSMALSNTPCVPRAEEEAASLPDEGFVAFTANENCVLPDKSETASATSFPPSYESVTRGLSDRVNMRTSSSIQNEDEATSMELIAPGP
Assay type: cell-based
Method: The following NaV1.8 recombinant cell line was used for recordings: HEK-NaV1.8 (NM 006514.1) with b3 (NM_018400.3).
Sodium currents were measured using the patch clamp technique in the whole-cell configuration using the Qube384 (Sophion A/S, Copenhagen, Denmark) automated voltage clamp platform. "Multi hole" plates were used for the cell line expressing NaV1.8 while "single hole" plates were used for the recombinant cell lines expressing the other subtypes. Appropriate filters (for minimum seal resistance and minimum current size) and series resistance compensation (for high quality sodium channel recordings) were applied. Data was collected at ambient room temperature.
The recording […] solution contained (in mM): NaCl 145 mM, KCl 4 mM, CaCl2 2 mM, MgCh 1 mM, HEPES 10 mM, Glucose 10 mM, pH 7.4 (NaOH). The […] recording solution contained (in mM): CsF 120 mM, CsCl 20 mM, NaCl 10 mM, EGTA 10 mM, HEPES 10 mM, pH 7.2 (CsOH). Currents were recorded at 25 kHz sampling frequency and filtered at 5 kHz. Series resistance compensation was applied at 65%. Vehicle (VEH) is the control condition where cells are exposed to 0.3 % DMSO without compound. All runs include VEH controls being exposed to the same voltage protocols to assess non-compound related phenomena such as run down and then used to isolate compound dependent effects on currents.
To check for state-dependence inhibition, the following voltage-sequence was applied every 20 seconds: From a resting membrane potential of-120 mV, the first test pulse (P1; 20 ms to -10 mV) was applied to check for channels in the Resting State followed by a brief recovery (20 ms to -120 mV), then holding the membrane voltage to V1/2 (4 seconds at voltage to obtain half the channel at Rest and half Inactivated) with a subsequent second test pulse (P2; 20 ms to -10 mV) to check for channels in the Inactivated State, followed by another brief recovery (20 ms to -120 mV) and a final third test pulse (P3; 20 ms to -10 mV) to check for recovered channels.
To check for frequency-dependent inhibition, a 10 Hz protocol and a 20 Hz protocol were applied; namely,
From a resting membrane potential of -120 mV, 40-pulses (10 ms to -10 mV) was applied at 10 Hz (at 100 ms between pulses) and then at 20 Hz (at 50 ms between pulses).
Each parameter was recorded (P1, P2, P3, P40 from 10Hz and P40 from 20Hz) during a control period (lasting ~ 5 minutes) when establishing the baseline and during compound period (lasting ~ 12 minutes) when test compound (or vehicle) was applied. For each parameter, the value at the end of the compound period was normalized to the vehicle baseline; as follows Normalized Inhibition(NormCPD) = (CPD Valueend CPD period)/(VEH Valueend Control Period) [formula]
To adjust for any variance in the Na^+ current signal during the compound period (owing to cumulative inactivation independent of compound or shifts in biophysics over time), a dedicated segment of the recording wells in each 384 plate were dedicated to having only vehicle exposure. These vehicle-only recordings were used to correct for any apparent "run-up" or "run-down" in the experiment. Normalized Inhibition(NormVEH) = (VEH Valueend CPD period)/(VEH Valueend Control Period) [formula]
The adjusted inhibition was calculated as follows: % Inhibitioncorrected = 100 × (NormCPD −NormVEH)/(100−NormVEH) [formula]
Percent inhibition was determined and IC50 values were calculated using a 4 parameter logistic model within XLFit Software (IDBS, Boston MA): %Inhibitioncorrected = A + ((B−A))/((1 + (((x)/(C)))^D) [formula] where A and B are the maximal and minimum inhibition respectively, C is the IC50 concentration and D is the (Hill) slope.

SMILES	IC50 [nM]
Cc1c(C(C)(F)F)nn(C[C@H]2CCC(F)(F)C2)c1C(=O)Nc1cc[n+]([O-])c(C(N)=O)c1 [Example 1b, (S)-2-Carbamoyl-4-(1-((3,3-difluorocyclopentyl)methyl)-3-(1,1-difluoroethyl)-4-methyl-1H-pyrazole-5-carboxamido)pyridine 1-oxide]	100 to 1000
Cc1c(C(C)(F)F)nn(CC2CC(F)(F)C2)c1C(=O)Nc1cc[n+]([O-])c(C(N)=O)c1 [Example 3, 2-carbamoyl-4-(1-((3,3-difluorocyclobutyl)methyl)-3-(1,1-difluoroethyl)-4-methyl-1H-pyrazole-5-carboxamido)pyridine 1-oxide]	100 to 1000
CC(F)(F)c1nn(CC2CC(F)(F)C2)c(C(=O)Nc2ccnc(C(=O)O)c2)c1C(F)(F)F [Example 7, 4-(1-((3,3-difluorocyclobutyl)methyl)-3-(1,1-difluoroethyl)-4-(trifluoromethyl)-1H-pyrazole-5-carboxamido)picolinic acid]	1000 to 10000
CC(F)(F)c1nn(CC2CC(F)(F)C2)c(C(=O)Nc2ccc(C(=O)O)nc2)c1C(F)(F)F [Example 8, 5-(1-((3,3-difluorocyclobutyl)methyl)-3-(1,1-difluoroethyl)-4-(trifluoromethyl)-1H-pyrazole-5-carboxamido)picolinic acid]	100 to 1000
O=C(O)c1cc(NC(=O)c2c(C(F)(F)F)c(C3CC3)nn2CC2CCC(F)(F)CC2)ccn1 [Example 9, 4-(3-cyclopropyl-1-((4,4-difluorocyclohexyl)methyl)-4-(trifluoromethyl)-1H-pyrazole-5-carboxamido)picolinic acid]	100 to 1000
CP(C)(=O)c1cc(NC(=O)c2c(C(F)(F)F)cnn2CC2CCCCC2)ccn1 [Example 10, 1-(cyclohexylmethyl)-N-(2-(dimethylphosphoryl)pyridin-4-yl)-4-(trifluoromethyl)-1H-pyrazole-5-carboxamide]	100 to 1000

Second part, the compound after the results:

IC50 [nM]	SMILES
≤ 100	Cc1c(C(C)(F)F)nn(CC2(C)CCC(F)(F)C2)c1C(=O)Nc1cc[n+]([O-])c(C(N)=O)c1 (single isomer, unassigned) [Example 5a, 2-carbamoyl-4-(1-((3,3-difluoro-1-methylcyclopentyl)methyl)-3-(1,1-difluoroethyl)-4-methyl-1H-pyrazole-5-carboxamido)pyridine 1-oxide]
100 to 1000	Cc1c(C(C)(F)F)nn(C[C@@H]2CCC(F)(F)C2)c1C(=O)Nc1cc[n+]([O-])c(C(N)=O)c1 [Example 1a, (R)-2-Carbamoyl-4-(1-((3,3-difluorocyclopentyl)methyl)-3-(1,1-difluoroethyl)-4-methyl-1H-pyrazole-5-carboxamido)pyridine 1-oxide]
≤ 100	Cc1c(C(C)(F)F)nn(CC2(C)CC(F)(F)C2)c1C(=O)Nc1cc[n+]([O-])c(C(N)=O)c1 [Example 4, 2-carbamoyl-4-(1-((3,3-difluoro-1-methylcyclobutyl)methyl)-3-(1,1-difluoroethyl)-4-methyl-1H-pyrazole-5-carboxamido)pyridine 1-oxide]
